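Assay format: 96-well plates, 48-hour exposure. Here, GI50 denotes the concentration required for 50% inhibition of growth. The concentration for full growth arrest is given as TGI.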
Legend:
Experiment in all cases: inhibition of tumour cell growth, NCI panel, 48 h
SN12C renal = test system: SN12C renal
K-562 leukemia = test system: K-562 leukemia
OVCAR-3 ovarian = test system: OVCAR-3 ovarian
SF-295 CNS = test system: SF-295 CNS
SK-MEL-5 melanoma = test system: SK-MEL-5 melanoma
SNB-75 CNS = test system: SNB-75 CNS
UACC-257 melanoma = test system: UACC-257 melanoma
HL-60(TB) leukemia = test system: HL-60(TB) leukemia
RXF 393 renal = test system: RXF 393 renal
DU-145 prostate = test system: DU-145 prostate
UO-31 renal = test system: UO-31 renal
SF-268 CNS = test system: SF-268 CNS
SF-539 CNS = test system: SF-539 CNS
TK-10 renal = test system: TK-10 renal
SK-OV-3 ovarian = test system: SK-OV-3 ovarian
UACC-62 melanoma = test system: UACC-62 melanoma
T-47D breast = test system: T-47D breast

SMILES	TGI (SN12C renal) [µM]	TGI (K-562 leukemia) [µM]	TGI (OVCAR-3 ovarian) [µM]	TGI (SF-295 CNS) [µM]	TGI (SK-MEL-5 melanoma) [µM]	TGI (SNB-75 CNS) [µM]	TGI (UACC-257 melanoma) [µM]	TGI (HL-60(TB) leukemia) [µM]	TGI (RXF 393 renal) [µM]	TGI (DU-145 prostate) [µM]	TGI (UO-31 renal) [µM]	TGI (SF-268 CNS) [µM]	TGI (SF-539 CNS) [µM]	TGI (TK-10 renal) [µM]	TGI (SK-OV-3 ovarian) [µM]	TGI (UACC-62 melanoma) [µM]	TGI (T-47D breast) [µM]	GI50 (SN12C renal) [µM]
c1ccc(N=C2SC(c3ccccc3)CN2C23CC4CC(CC(C4)C2)C3)cc1 (centres undefined)	> 100	> 100	> 100	> 100	> 100	> 100	> 100	> 100	> 100	> 100	> 100	> 100	> 100	> 100				
CCCCCCCCCCCCCC/C(=C/OCC[N+](C)(C)C)OC(C)=O (tested in a mixture with another compound)	12.5	13.3	8.21	5.34	4.92	7.3	8.91	3.27	2.45	17.1	30	5.09	5.88	3.76	17.1	5.25		
C=C(Cl)C(Br)(CCl)CCC(Cl)C(C)C (centres undefined) (tested in a mixture with another compound)	3.08	24.2	5.15	19.6	3.9	2.35	3.27		3.93	3.25	3.01	3.53	3.72	4.05	8.85	2.59		
COc1cc([C@@H]2c3cc4c(cc3[C@@H](NC(=O)c3ccc(C(C)=O)cc3)C3COC(=O)[C@@H]32)OCO4)cc(OC)c1O (some centres undefined)	2.03	> 100	7.61	> 100	10.3	4.99	32.2	0.912	72.1		17.6	> 100	1.89	21.8	9.46	2.1		
CCCN(CCC)C(=O)Cc1c2n(c3ccccc13)CCCc1ccccc1-2	29.2	37.4	29.5	22.4	27.4	24.4	27	37.1	22.4		27.2	28.5	28.6	29.5	29	23		
O=S(=O)(O)c1cc(O)c2c(O)c(N=Nc3ccc(/C=C/c4ccc(N=Nc5c(S(=O)(=O)O)cc6cc(S(=O)(=O)O)cc(O)c6c5O)cc4S(=O)(=O)O)c(S(=O)(=O)O)c3)c(S(=O)(=O)O)cc2c1	> 100	> 100	> 100	> 100	> 100	> 100	> 100	> 100	> 100		> 100	> 100	> 100	> 100	> 100	> 100		
CCN(CC)CCNC(=O)c1ccccc1Nc1c(Cl)cccc1Cl	27.1				24.2	23.8	29	25.5	27.9		22.2	34.7	32.7	24.8	30.4	32.1		
CN1C(=O)c2cccc3c([N+](=O)[O-])ccc(c23)C1=O	24.9	25	11.4	28.1	32.6	25.1	21.6		8.61		26.7	23.5	26.2	15.6	27.9	4.03		
Cc1nnc2nc(-c3ccc(Cl)cc3Cl)cc(-c3ccc(Cl)cc3)n12	> 100	> 100	> 100	> 100	> 100		> 100	> 100		> 100	> 100	> 100	> 100	> 100	> 100	> 100	> 100	
COC(=O)C(=O)C(C(=O)C(=O)Nc1ccc([N+](=O)[O-])cc1C#N)c1nc2ccc([N+](=O)[O-])cc2[nH]c1=O (centres undefined)	> 100	> 100	> 100	> 100		> 100	> 100	> 100	> 100		> 100	> 100	> 100	> 100	> 100	> 100		
C/C(=N\O)C(CN(C)C)C(c1ccccc1)c1c(O)c2ccccc2oc1=O (centres undefined)	> 100	> 100		> 100	> 100	> 100	> 100	> 100	> 100		> 100	> 100	> 100	> 100	> 100	> 100		
O=[N+]([O-])/C(Cl)=C(\Sc1ccccc1)C(Cl)=C(Cl)Cl	1.51		2.85	8.92	1.72		0.994	0.515	2.6	3.08	0.654	3.05	2.98	3.21	13.3	1.98	4.88	
CCOC(=O)NC(=O)c1cn(-c2ccc(CCOC(=O)CCCCCCCCC(=O)OCCc3ccc(-n4cc(C(=O)NC(=O)OCC)c(=O)[nH]c4=O)cc3)cc2)c(=O)[nH]c1=O	> 100	> 100	> 100	> 100	> 100		> 100	> 100	> 100		> 100	> 100	> 100	> 100	> 100	> 100		
COc1cc2c(cc1OC)[C@]1(O)C(=O)c3ccc4c(c3O[C@@H]1CO2)C[C@H](C(C)(C)O)O4		> 100	> 100			> 100	> 100	> 100	> 100		> 100		> 100	> 100	> 100	> 100		
COc1cccc2c1[C@H](OC)[C@]13O[C@@]1(C2=O)[C@H](O)[C@H](C)[C@@](O)(C(=O)[C@@H]1O[C@H]1C)[C@@H]3O	0.819	> 100	1.96	0.558	0.386	0.544	0.527		1.1		0.647	1.22	0.975	10.7	1.47	0.877		0.0489

Source: PubChem BioAssay (NCI)
